Measured values published in ChEMBL document CHEMBL4038270, “Synthesis of heterocyclic ring-fused tricyclic diterpene analogs as novel inhibitors of RANKL-induced osteoclastogenesis and bone resorption” (Eur J Med Chem, 2017).

Key:
[1] = Inhibition of RANKL-induced C57BL/6 mouse bone marrow monocytes differentiation into osteoclasts at 2 uM after 6 days in presence of M-CSF by tartrate-resistant acid phosphatase staining based assay relative to control; format: functional; settings: C57BL/6, Bone marrow monocyte, 144 h
[2] = Inhibition of RANKL-induced C57BL/6 mouse bone marrow monocytes differentiation into osteoclasts at 10 uM after 6 days in presence of M-CSF by tartrate-resistant acid phosphatase staining based assay relative to control; format: functional; settings: C57BL/6, Bone marrow monocyte, 144 h
[3] = Inhibition of RANKL-induced C57BL/6 mouse bone marrow monocytes differentiation into osteoclasts at 0.5 uM after 6 days in presence of M-CSF by tartrate-resistant acid phosphatase staining based assay relative to control; format: functional; settings: C57BL/6, Bone marrow monocyte, 144 h
[4] = Inhibition of RANKL-induced C57BL/6 mouse bone marrow monocytes differentiation into osteoclasts at 0.1 uM after 6 days in presence of M-CSF by tartrate-resistant acid phosphatase staining based assay relative to control; format: functional; settings: C57BL/6, Bone marrow monocyte, 144 h
[5] = Inhibition of RANKL-induced C57BL/6 mouse bone marrow monocytes differentiation into osteoclasts after 6 days in presence of M-CSF by tartrate-resistant acid phosphatase staining based assay; format: functional, cell-based; settings: C57BL/6, Bone marrow monocyte, 144 h
[6] = Potency index, ratio of maslinic acid IC50 to compound IC50 for RANKL-induced C57BL/6 mouse bone marrow monocytes differentiation into osteoclasts; format: functional, Bone marrow monocyte
[7] = Inhibition of RANKL-induced C57BL/6 mouse bone marrow macrophage differentiation into osteoclasts in presence of M-CSF by tartrate-resistant acid phosphatase staining based assay; format: functional, cell-based; settings: C57BL/6, BMDM

Work on `COc1ccc2c(c1)[C@@]1(C)Cc3c([nH]c4ccccc34)C(C)(C)[C@@H]1CC2` yielded an inhibition at 2 µM [1] of 74.3%, an inhibition at 10 µM [2] of 88.9% and an inhibition at 0.5 µM [3] of 57.6%.

With `CCOC(=O)c1[nH]nc2c1C[C@]1(C)c3cc(OC)ccc3CC[C@H]1C2(C)C` the inhibition at 2 µM [1] was 71.7%, the inhibition at 10 µM [2] was 93.7% and the inhibition at 0.5 µM [3] was 61.6%.

In the case of `CNC(=O)c1cc2c(cc1O)[C@@]1(C)Cc3nc(C)oc3C(C)(C)[C@@H]1CC2`, the inhibition at 0.1 µM [4] is reported as 64.1%, the inhibition at 2 µM [1] is reported as 96.6% and the inhibition at 0.5 µM [3] is reported as 87.6%.

In the case of `COc1ccc2c(c1)[C@@]1(C)Cc3c[nH]nc3C(C)(C)[C@@H]1CC2`, the inhibition at 2 µM [1] is reported as 8.1%, the inhibition at 10 µM [2] is reported as 10.1% and the inhibition at 0.5 µM [3] is reported as 4.3%.

For `COc1ccc2c(c1)[C@@]1(C)Cc3nc(C)oc3C(C)(C)[C@@H]1CC2`, the inhibition at 0.1 µM [4] was 42.9%, the IC50 [5] was 0.33 µM and the inhibition at 2 µM [1] was 99.2%. The “Ratio IC50” value [6] was 2, the inhibition at 10 µM [2] was 100% and the inhibition at 0.5 µM [3] was 75%.

Work on `CCC(=O)c1cc2c(cc1OC)[C@@]1(C)Cc3nc(C)oc3C(C)(C)[C@@H]1CC2` yielded an inhibition at 0.1 µM [4] of 32.5%, an inhibition at 2 µM [1] of 91.3% and an inhibition at 0.5 µM [3] of 64.1%.

With `COc1cc2c(cc1C(N)=O)CC[C@H]1C(C)(C)c3oc(C)nc3C[C@]21C` the inhibition at 0.1 µM [4] was 10.2%, the inhibition at 2 µM [1] was 57% and the inhibition at 0.5 µM [3] was 30.9%.

Molecule `COc1cc2c(cc1NC(C)=O)CC[C@H]1C(C)(C)c3oc(C)nc3C[C@]21C` has an inhibition at 0.1 µM [4] of 26.9%, an inhibition at 2 µM [1] of 66.1% and an inhibition at 0.5 µM [3] of 44.1%.

Molecule `CCNC(=O)c1noc2c1C[C@]1(C)c3cc(OC)ccc3CC[C@H]1C2(C)C` has an inhibition at 2 µM [1] of 42.4%, an inhibition at 10 µM [2] of 84.3% and an inhibition at 0.5 µM [3] of 33.6%.

In the case of `COc1cc2c(cc1N)CC[C@H]1C(C)(C)c3oc(C)nc3C[C@]21C`, the inhibition at 0.1 µM [4] is reported as 27.1%, the inhibition at 2 µM [1] is reported as 77.7% and the inhibition at 0.5 µM [3] is reported as 54.8%.

`CCCC(=O)c1cc2c(cc1OC)[C@@]1(C)Cc3nc(C)oc3C(C)(C)[C@@H]1CC2` showed an inhibition at 0.1 µM [4] of 30%, an inhibition at 2 µM [1] of 83.6% and an inhibition at 0.5 µM [3] of 55.6%.

`CNC(=O)c1noc2c1C[C@]1(C)c3cc(OC)ccc3CC[C@H]1C2(C)C` gave an inhibition at 2 µM [1] of 52.8%, an inhibition at 10 µM [2] of 100% and an inhibition at 0.5 µM [3] of 28.6%.

For `COc1ccc2c(c1)[C@@]1(C)Cc3c(n[nH]c3C(=O)O)C(C)(C)[C@@H]1CC2`, the inhibition at 2 µM [1] was 57.2%, the inhibition at 10 µM [2] was 56.1% and the inhibition at 0.5 µM [3] was 43.9%.

Work on `COc1ccc2c(c1)[C@@]1(C)Cc3c(C(=O)O)noc3C(C)(C)[C@@H]1CC2` yielded an inhibition at 2 µM [1] of 66.8%, an inhibition at 10 µM [2] of 77.9% and an inhibition at 0.5 µM [3] of 55.1%.

Molecule `COc1ccc2c(c1)[C@@]1(C)Cc3cnc(N)nc3C(C)(C)[C@@H]1CC2` has an inhibition at 2 µM [1] of 64.6%, an inhibition at 10 µM [2] of 96.2% and an inhibition at 0.5 µM [3] of 38.6%.

`COc1cc2c(cc1C(C)=O)CC[C@H]1C(C)(C)c3oc(C)nc3C[C@]21C` showed an inhibition at 0.1 µM [4] of 30.6%, an inhibition at 2 µM [1] of 100% and an inhibition at 0.5 µM [3] of 64.5%.

Molecule `COc1cc2c(cc1C(=O)O)CC[C@H]1C(C)(C)c3oc(C)nc3C[C@]21C` has an inhibition at 0.1 µM [4] of 22.6%, an inhibition at 2 µM [1] of 67.8% and an inhibition at 0.5 µM [3] of 45.2%.

In the case of `COc1cc2c(cc1C(=O)N(C)C)CC[C@H]1C(C)(C)c3oc(C)nc3C[C@]21C`, the inhibition at 0.1 µM [4] is reported as 53.1%, the inhibition at 2 µM [1] is reported as 89.2% and the inhibition at 0.5 µM [3] is reported as 70.1%.

Work on `CC1(C)CC[C@]2(C(=O)O)CC[C@]3(C)C(=CC[C@@H]4[C@@]5(C)C[C@@H](O)[C@H](O)C(C)(C)[C@@H]5CC[C@]43C)[C@@H]2C1` [MASLINIC ACID] yielded an IC50 [5] of 0.63 µM, an inhibition at 2 µM [1] of 59.7% and an inhibition at 10 µM [2] of 76.3%. The inhibition at 0.5 µM [3] was 48.6%.

Work on `CCCCNC(=O)c1cc2c(cc1OC)[C@@]1(C)Cc3nc(C)oc3C(C)(C)[C@@H]1CC2` yielded an inhibition at 0.1 µM [4] of 34.5%, an inhibition at 2 µM [1] of 88.6% and an inhibition at 0.5 µM [3] of 37.8%.

For `COc1ccc2c(c1)[C@@]1(C)Cc3cncnc3C(C)(C)[C@@H]1CC2`, the inhibition at 2 µM [1] was 83%, the inhibition at 10 µM [2] was 99.5% and the inhibition at 0.5 µM [3] was 51.1%.

Work on `CC1(C)C(=O)CC[C@]2(C)[C@@H]1CC[C@@]13C[C@@H]4[C@@H](C[C@H]12)[C@]4(C(=O)O)C3` yielded an IC50 [7] of 4 µM.

With `COc1ccc2c(c1)[C@@]1(C)Cc3nccnc3C(C)(C)[C@@H]1CC2` the inhibition at 2 µM [1] was 66.9%, the inhibition at 10 µM [2] was 98.2% and the inhibition at 0.5 µM [3] was 34.3%.

Work on `COC(=O)c1noc2c1C[C@]1(C)c3cc(OC)ccc3CC[C@H]1C2(C)C` yielded an inhibition at 2 µM [1] of 43.7%, an inhibition at 10 µM [2] of 100% and an inhibition at 0.5 µM [3] of 34.8%.

For `CC1(C)[C@H](O)C(=O)C[C@]2(C)[C@@H]1CC[C@]13CC4C[C@](O)(C1)[C@@H]4C[C@H]32`, the IC50 [7] was 15 µM.

Molecule `COc1ccc2c(c1)[C@@]1(C)Cc3cnc(C)nc3C(C)(C)[C@@H]1CC2` has an inhibition at 2 µM [1] of 76%, an inhibition at 10 µM [2] of 98.5% and an inhibition at 0.5 µM [3] of 45.2%.

For `CC1(C)[C@H](O)CC[C@]2(C)[C@@H]1CC[C@]13CC4C[C@](O)(C1)[C@@H]4C[C@H]32`, the IC50 [7] was 20 µM.

With `CCCNC(=O)c1cc2c(cc1OC)[C@@]1(C)Cc3nc(C)oc3C(C)(C)[C@@H]1CC2` the inhibition at 0.1 µM [4] was 38.1%, the inhibition at 2 µM [1] was 100% and the inhibition at 0.5 µM [3] was 62.8%.

In the case of `CCCOC(=O)c1noc2c1C[C@]1(C)c3cc(OC)ccc3CC[C@H]1C2(C)C`, the inhibition at 2 µM [1] is reported as 41.4%, the inhibition at 10 µM [2] is reported as 100% and the inhibition at 0.5 µM [3] is reported as 34.8%.

`CCNC(=O)c1cc2c(cc1OC)[C@@]1(C)Cc3nc(C)oc3C(C)(C)[C@@H]1CC2` showed an inhibition at 0.1 µM [4] of 56.1%, an inhibition at 2 µM [1] of 98.2% and an inhibition at 0.5 µM [3] of 70%.

With `COc1ccc2c(c1)[C@@]1(C)Cc3snnc3C(C)(C)[C@@H]1CC2` the inhibition at 2 µM [1] was 76.8%, the inhibition at 10 µM [2] was 97.2% and the inhibition at 0.5 µM [3] was 66.7%.

`COc1ccc2c(c1)[C@@]1(C)Cc3c(CO)noc3C(C)(C)[C@@H]1CC2` gave an inhibition at 2 µM [1] of 51.7%, an inhibition at 10 µM [2] of 91.4% and an inhibition at 0.5 µM [3] of 43.4%.

With `COc1cc2c(cc1/C(C)=N/O)CC[C@H]1C(C)(C)c3oc(C)nc3C[C@]21C` the inhibition at 0.1 µM [4] was 26.9%, the inhibition at 2 µM [1] was 70% and the inhibition at 0.5 µM [3] was 42.7%.

For `CCOC(=O)c1noc2c1C[C@]1(C)c3cc(OC)ccc3CC[C@H]1C2(C)C`, the inhibition at 2 µM [1] was 88.6%, the inhibition at 10 µM [2] was 100% and the inhibition at 0.5 µM [3] was 49.5%.

`COc1ccc2c(c1)[C@@]1(C)Cc3cnoc3C(C)(C)[C@@H]1CC2` showed an IC50 [5] of 7.5 µM, an inhibition at 2 µM [1] of 15.9% and an inhibition at 10 µM [2] of 59.1%. For the same molecule, the inhibition at 0.5 µM [3] was 1.5%.

With `COc1ccc2c(c1)[C@@]1(C)Cc3nc(N)sc3C(C)(C)[C@@H]1CC2` the inhibition at 2 µM [1] was 35.8%, the inhibition at 10 µM [2] was 98.2% and the inhibition at 0.5 µM [3] was 29.8%.
